Test results from ChEMBL document CHEMBL3044830, “Synthesis, characterization, antibacterial, antifungal, and immunomodulating activities of gatifloxacin derivatives” (Med Chem Res, 2010).

Key:
Shigella flexneri [1] = test: Antibacterial activity against Shigella flexneri assessed as concentration required to obtain a zone of inhibition of 5 mm after 18 to 24 hr by disk diffusion method; type: functional
Pseudomonas aeruginosa [2] = test: Antibacterial activity against Pseudomonas aeruginosa assessed as concentration required to obtain a zone of inhibition of 20 mm after 18 to 24 hr by disk diffusion method; type: functional
Proteus mirabilis [3] = test: Antibacterial activity against Proteus mirabilis assessed as concentration required to obtain a zone of inhibition of 5 mm after 18 to 24 hr by disc diffusion method; type: functional
Fusarium solani [4] = test: Antifungal activity against Fusarium solani assessed as concentration required to obtain a zone of inhibition of 20 mm after 7 days by disk diffusion method; type: functional
Klebsiella pneumoniae [5] = test: Antibacterial activity against Klebsiella pneumoniae assessed as concentration required to obtain a zone of inhibition of 10 mm after 18 to 24 hr by disk diffusion method; type: functional
Blood [6] = test: Antioxidant activity in Homo sapiens (human) whole blood assessed as inhibition of ROS production at 100 ug/ml after 30 min by luminol-enhanced chemiluminescence assay; type: functional; settings: 0.5 h
Candida albicans [7] = test: Antifungal activity against Candida albicans assessed as concentration required to obtain a zone of inhibition of 20 mm after 7 days by disk diffusion method; type: functional
Shigella sp. [8] = test: Antibacterial activity against Shigella typhi assessed as concentration required to obtain a zone of inhibition of 5 mm after 18 to 24 hr by disc diffusion method; type: functional
Citrobacter [9] = test: Antibacterial activity against Citrobacter assessed as concentration required to obtain a zone of inhibition of 5 mm after 18 to 24 hr by disk diffusion method; type: functional
T-cell [10] = test: Anti-inflammatory activity in Homo sapiens (human) T lymphocytes assessed as inhibition of PHA-induced [3H] thymidine uptake incubated for 72 hr prior to [3H]thymidine addition measured after 18 hr by liquid scintillation method; type: functional, cell-based
[11] = Antibacterial activity against Hofmanni bacterium assessed as concentration required to obtain a zone of inhibition of 20 mm after 18 to 24 hr by disc diffusion method
Bacillus subtilis [12] = test: Antibacterial activity against Bacillus subtilis assessed as concentration required to obtain a zone of inhibition of 5 mm after 18 to 24 hr by disk diffusion method; type: functional
Fusarium solani [13] = test: Antifungal activity against Fusarium solani assessed as concentration required to obtain a zone of inhibition of 40 mm after 7 days by disk diffusion method; type: functional
Escherichia coli [14] = test: Antibacterial activity against Escherichia coli assessed as concentration required to obtain a zone of inhibition of 20 mm after 18 to 24 hr by disk diffusion method; type: functional
Trichophyton rubrum [15] = test: Antifungal activity against Trichophyton rubrum assessed as concentration required to obtain a zone of inhibition of 40 mm after 7 days by disk diffusion method; type: functional
Pseudomonas aeruginosa [16] = test: Antibacterial activity against Pseudomonas aeruginosa assessed as concentration required to obtain a zone of inhibition of 10 mm after 18 to 24 hr by disk diffusion method; type: functional
Blood [17] = test: Antioxidant activity in Homo sapiens (human) whole blood assessed as inhibition of ROS production after 30 min by luminol-enhanced chemiluminescence assay; type: functional, tissue-based; settings: 0.5 h
Proteus mirabilis [18] = test: Antibacterial activity against Proteus mirabilis assessed as concentration required to obtain a zone of inhibition of 10 mm after 18 to 24 hr by disc diffusion method; type: functional
Bacillus subtilis [19] = test: Antibacterial activity against Bacillus subtilis assessed as concentration required to obtain a zone of inhibition of 10 mm after 18 to 24 hr by disk diffusion method; type: functional
Citrobacter [20] = test: Antibacterial activity against Citrobacter assessed as concentration required to obtain a zone of inhibition of 20 mm after 18 to 24 hr by disk diffusion method; type: functional
Trichophyton rubrum [21] = test: Antifungal activity against Trichophyton rubrum assessed as concentration required to obtain a zone of inhibition of 20 mm after 7 days by disk diffusion method; type: functional
T-cell [22] = test: Anti-inflammatory activity in Homo sapiens (human) T lymphocytes assessed as inhibition of PHA-induced [3H] thymidine uptake at 3.12 ug/ml incubated for 72 hr prior to [3H]thymidine addition measured after 18 hr by liquid scintillation method; type: functional
Klebsiella pneumoniae [23] = test: Antibacterial activity against Klebsiella pneumoniae assessed as concentration required to obtain a zone of inhibition of 20 mm after 18 to 24 hr by disk diffusion method; type: functional
T-cell [24] = test: Anti-inflammatory activity in Homo sapiens (human) T lymphocytes assessed as inhibition of PHA-induced [3H] thymidine uptake at 50 ug/ml incubated for 72 hr prior to [3H]thymidine addition measured after 18 hr by liquid scintillation method; type: functional
Blood [25] = test: Antioxidant activity in Homo sapiens (human) whole blood assessed as inhibition of ROS production at 12.5 ug/ml after 30 min by luminol-enhanced chemiluminescence assay; type: functional; settings: 0.5 h
T-cell [26] = test: Anti-inflammatory activity in Homo sapiens (human) T lymphocytes assessed as inhibition of PHA-induced [3H] thymidine uptake at 12.5 ug/ml incubated for 72 hr prior to [3H]thymidine addition measured after 18 hr by liquid scintillation method; type: functional
Blood [27] = test: Antioxidant activity in Homo sapiens (human) whole blood assessed as inhibition of ROS production at 50 ug/ml after 30 min by luminol-enhanced chemiluminescence assay; type: functional; settings: 0.5 h
Escherichia coli [28] = test: Antibacterial activity against Escherichia coli assessed as concentration required to obtain a zone of inhibition of 5 mm after 18 to 24 hr by disk diffusion method; type: functional
Candida albicans [29] = test: Antifungal activity against Candida albicans assessed as concentration required to obtain a zone of inhibition of 40 mm after 7 days by disk diffusion method; type: functional
Bacillus subtilis [30] = test: Antibacterial activity against Bacillus subtilis assessed as concentration required to obtain a zone of inhibition of 20 mm after 18 to 24 hr by disk diffusion method; type: functional
Shigella sp. [31] = test: Antibacterial activity against Shigella typhi assessed as concentration required to obtain a zone of inhibition of 20 mm after 18 to 24 hr by disc diffusion method; type: functional
Pseudomonas aeruginosa [32] = test: Antibacterial activity against Pseudomonas aeruginosa assessed as concentration required to obtain a zone of inhibition of 5 mm after 18 to 24 hr by disk diffusion method; type: functional
Escherichia coli [33] = test: Antibacterial activity against Escherichia coli assessed as concentration required to obtain a zone of inhibition of 10 mm after 18 to 24 hr by disk diffusion method; type: functional
Klebsiella pneumoniae [34] = test: Antibacterial activity against Klebsiella pneumoniae assessed as concentration required to obtain a zone of inhibition of 5 mm after 18 to 24 hr by disk diffusion method; type: functional
Shigella flexneri [35] = test: Antibacterial activity against Shigella flexneri assessed as concentration required to obtain a zone of inhibition of 20 mm after 18 to 24 hr by disk diffusion method; type: functional
Citrobacter [36] = test: Antibacterial activity against Citrobacter assessed as concentration required to obtain a zone of inhibition of 10 mm after 18 to 24 hr by disk diffusion method; type: functional
[37] = Antibacterial activity against Hofmanni bacterium assessed as concentration required to obtain a zone of inhibition of 10 mm after 18 to 24 hr by disc diffusion method
Proteus mirabilis [38] = test: Antibacterial activity against Proteus mirabilis assessed as concentration required to obtain a zone of inhibition of 20 mm after 18 to 24 hr by disc diffusion method; type: functional
[39] = Antibacterial activity against Hofmanni bacterium assessed as concentration required to obtain a zone of inhibition of 5 mm after 18 to 24 hr by disc diffusion method
Shigella flexneri [40] = test: Antibacterial activity against Shigella flexneri assessed as concentration required to obtain a zone of inhibition of 10 mm after 18 to 24 hr by disk diffusion method; type: functional

COc1c(N2CCNC(C)C2)c(F)cc2c(=O)c(C(=O)O)cn(C3CC3)c12 (stereo not given) [GATIFLOXACIN]
Activity (Shigella flexneri [1]): 9 µg/mL
Activity (Pseudomonas aeruginosa [2]): 14 µg/mL
Activity (Proteus mirabilis [3]): 9 µg/mL
Activity (Fusarium solani [4]): 12 µg/mL
Activity (Klebsiella pneumoniae [5]): 14 µg/mL
inhibition at 100 µg/mL (Blood [6]): 84.7%
Activity (Candida albicans [7]): 8 µg/mL
Activity (Shigella sp. [8]): 8 µg/mL
Activity (Citrobacter [9]): 15 µg/mL
IC50 (T-cell [10]): > 50 µg/mL
Activity [11]: 15 µg/mL
Activity (Bacillus subtilis [12]): 11 µg/mL
Activity (Fusarium solani [13]): 18 µg/mL
Activity (Escherichia coli [14]): 17 µg/mL
Activity (Trichophyton rubrum [15]): 14 µg/mL
Activity (Pseudomonas aeruginosa [16]): 12 µg/mL
IC50 (Blood [17]): 31 µg/mL
Activity (Proteus mirabilis [18]): 15 µg/mL
Activity (Bacillus subtilis [19]): 15 µg/mL
Activity (Citrobacter [20]): 26 µg/mL
Activity (Trichophyton rubrum [21]): 12 µg/mL
inhibition at 3.12 µg/mL (T-cell [22]): -71.1%
Activity (Klebsiella pneumoniae [23]): 19 µg/mL
inhibition at 50 µg/mL (T-cell [24]): -25.2%
inhibition at 12.5 µg/mL (Blood [25]): 19.7%
inhibition at 12.5 µg/mL (T-cell [26]): -97.9%
inhibition at 50 µg/mL (Blood [27]): 66%
Activity (Escherichia coli [28]): 7.5 µg/mL
Activity (Candida albicans [29]): 9 µg/mL
Activity (Bacillus subtilis [30]): 17 µg/mL
Activity (Shigella sp. [31]): 21 µg/mL
Activity (Pseudomonas aeruginosa [32]): 8 µg/mL
Activity (Escherichia coli [33]): 12 µg/mL
Activity (Klebsiella pneumoniae [34]): 9 µg/mL
Activity (Shigella flexneri [35]): 23 µg/mL
Activity (Citrobacter [36]): 23 µg/mL
Activity [37]: 13 µg/mL
Activity (Proteus mirabilis [38]): 19 µg/mL
Activity [39]: 8 µg/mL
Activity (Shigella flexneri [40]): 16 µg/mL
